Experimental data: publication PMC12866179, “Oxidized MIF is an Alzheimer’s disease drug target relaying external risk factors to tau pathology” (Cell Reports Medicine, 2025)
Where two headings read alike, the source gives them in different places.

Tests used:
pox viruses = details: cited from earlier work
CUTA = target: T1, CUTA (Homo sapiens, UniProt O60888); assay: Drug resin affinity chromatography (DRAC), CUTA; type: binding; details: SH-SY5Y-tau-P301S lysates
T1 construct: endogenous in cells; host or cells: SH-SY5Y-tau-P301S cell lysate
T1 sequence (O60888 33-179): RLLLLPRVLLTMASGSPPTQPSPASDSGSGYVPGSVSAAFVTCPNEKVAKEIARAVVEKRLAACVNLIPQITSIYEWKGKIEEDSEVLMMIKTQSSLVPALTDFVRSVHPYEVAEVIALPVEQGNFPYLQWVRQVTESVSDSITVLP
Experimental: (§1) For drug resin affinity chromatography (DRAC), supernatant of cell lysates or brain extracts were supplemented with 1 mM of ribonucleoside triphosphates (ATP, GTP, CTP, UTP; NEB), 10 mM creatine phosphate (Sigma) and 10 μL/mL of a 5 mg/mL stock solution of creatine kinase (Sigma). The samples were then loaded onto 20 μL of compound-coupled resin that were equilibrated with PBB-buffer (plus supplements). After one hour of incubation at 26°C, the beads were washed with PBB (100x bed volume). Bound proteins were then eluted either with 200 μM PAV-645 (pig brain) or 100 μM free compound (human brain samples; cell lysates) in the same buffer used as competitor solution or for stripping 1% SDS or 8M urea (cell lysates) for 1h. All elutions were kept frozen until further analysis.

HSV-1 = assay: In-cell ELISA for antiviral (HSV-1) activity in Vero cells; type: cell-based, HSV-1 KOS strain; details: for IC50: Human alphaherpesvirus 1, Vero; for potency relative to PAV-802 in inhibiting HSV-1 replication: in vitro assay
Experimental: Antiviral activity of the compounds was measured by in-cell ELISA that was adapted from Fabiani et al.[90] […] In parallel cells were infected with serial dilutions of HSV-1 to generate a standard curve. […] Following blocking with 5% BSA in PBS/0.05% Tween 20 (Sigma, PBS-T) for 60 min the cells were incubated with 50 μL of anti-HSV-1-gC antibody (abcam) diluted 1 to 10,000 in PBS-T over night at 4°C. The following day, cells were washed four times with PBS-T and then incubated with Hrp-conjugated goat anti-mouse antibody (Thermo Fisher Scientific) at a dilution of 1:10,000 in PBS-T for 60 min. Then, cells were washed four times with PBS-T before adding 50 μL of the substrate cocktail (OptEIA, BD). The reaction was stopped after 30 min by adding 50 μL of 2N H2SO4 and signals were spectrometrically analyzed using a Tecan Safire at 450 nm.

in vitro = in vitro ADME
MIF = target: T2, MIF (Homo sapiens, UniProt P14174); assay: Drug resin affinity chromatography (DRAC), MIF; type: binding; details: SH-SY5Y-tau-P301S lysates
T2 construct: endogenous in cells; host or cells: SH-SY5Y-tau-P301S cell lysate
T2 sequence (P14174 2-115): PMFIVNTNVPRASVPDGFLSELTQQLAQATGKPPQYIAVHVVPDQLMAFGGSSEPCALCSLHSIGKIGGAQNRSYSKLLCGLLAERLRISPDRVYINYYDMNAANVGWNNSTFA
Experimental: as §1

MTT assay, Vero cells = type: cell-based; details: for CC50 at 24 h: African green monkey
Experimental: For viability analysis 4x10^4 Vero or 8x10^4 SH-SY5Y-tau-P301S cells were plated in a 96-well plate and incubated at 37°C overnight. Then the compounds diluted in DMSO were added to the cells. The final concentration of DMSO was 1%. The cells were then incubated for 24h (Vero) or 48h (SH-SY5Y). Afterward 20 μL of a Thiazolyl Blue Tetrazolium Bromide (MTT, Sigma) solution (5 mg/mL in PBS) was added to the cells and incubated for 4h allowing viable cells to reduce the yellow MTT into blue formazan metabolites. Following aspiration of the medium, the formazan was resuspended in 200 μL isopropanol/40 mM HCl and incubated for 30 min at RT. The diluted formazan was spectrometrically analyzed using a Tecan Safire Spectrometer at 560 nm and background at 670 nm was subtracted.

tau phosphorylation = assay: Tau assay (immunoblot of phospho-tau) in SH-SY5Y-tau-P301S cells; type: cell-based, human; details: for tau phosphorylation at Ser202 and Thr205 (AT8): absence of virus, ISO-1 up to 100 μM; for effect on tau phosphorylation (AT8) in MIF-knockdown cells: SH-SY5Y-tau-P301S-MIF-knockdown cells; for potency relative to PAV-802 in inhibiting tau phosphorylation: in vitro assay
Experimental: For the analysis of compound effects on tau phosphorylation 4x10^5 SH-SY5Y tau-P301S cells were seeded on 24-well plates. At the next day the cells were treated with compounds diluted in DMSO. Final concentration of DMSO was 0.2%. After an incubation at 37°C for 48h the cells were washed twice with PBS and then lysed in PBS/1% NP40 (Applichem) including the cOmplete protease inhibitor cocktail 2 (Roche) and phosphatase inhibitor cocktail (Sigma). The protein concentration of the samples was determined with the DC Protein Assay (Bio-Rad).
After the protein concentration of cell lysates and homogenates had been determined using the DC Protein Assay Kit (Bio-Rad), 20 μg of each sample were dissolved in NuPAGE LDS Sample buffer (including 2% β-mercaptoethanol), boiled at 100°C for 5 min and then separated on NuPAGE Novex 4–12% Bis-Tris midi gels (Invitrogen) using NuPAGE MES SDS Running buffer (Invitrogen). Proteins were then transferred to a 0.2 μm nitrocellulose membrane (Amersham) in 24 mM Tris/192 mM glycine/20% MeOH at 400 mA for 2h using a tank blot system (Bio-Rad). In order to detect any blotting artifacts, the proteins on the membranes were visualized with Ponceau S (Sigma). The membranes were destained with PBS and then blocked with PBS/5% nonfat milk (Oxoid) for 1h at RT. Incubations with primary antibodies (diluted 1:1,000) in PBS-T were carried out overnight at 4°C. Then the membranes were washed three times with PBS-T for 10 min and afterward incubated with fluorescent secondary antibodies (IR Dye 680 or 800: Li-COR Biosciences.) diluted 1:20,000 in PBS-T for 1h at RT. Following three washing steps with PBS-T for 10 min each, the membranes were scanned using an LI-COR Odyssey CLX. Signal intensities were calculated using the Image Studio Version 2.1 software (LI-COR Biosciences). Blots were reused for staining with additional primary antibodies following the same procedure.

SMILES | antiviral effects on pox viruses (pox viruses) | elution of CUTA from PAV-617 resins by free compound (CUTA) | IC50 (HSV-1) [nM] | IC50 (HSV-1; read-out: IC50, HSV-1 replication, in-cell ELISA) [nM] | potency relative to PAV-802 in inhibiting HSV-1 replication (HSV-1) | fraction unbound (in vitro) | elution of MIF from PAV-617 resins by free compound (MIF) | CC50 at 24 h (MTT assay, Vero cells; CC50 (µM)) [µM] | CC50 at 24 h (MTT assay, Vero cells; CC50, MTT assay in Vero) [µM] | CC50 (MTT assay, Vero cells; CC50 (µM)) [µM] | tau phosphorylation at Thr181 (AT270) (tau phosphorylation; SH-SY5Y-tau-P301S cells) | tau phosphorylation at Thr231 (AT180) (tau phosphorylation; SH-SY5Y-tau-P301S cells) | HSV-1-induced increase of tau phosphorylation (AT8) (tau phosphorylation; SH-SY5Y-tau-P301S cells infected with HSV-1) | tau phosphorylation at Ser202 and Thr205 (AT8) (tau phosphorylation; SH-SY5Y-tau-P301S cells) | effect on tau phosphorylation (AT8) in MIF-knockdown cells (tau phosphorylation) | potency relative to PAV-802 in inhibiting tau phosphorylation (tau phosphorylation)
CCc1cc(N2CCCC2)cc2[s+]c3cc(N4CCCC4)cc(C)c3nc12.[I-] [PAV-174, 3,7-Di(pyrrolidine-1-yl) 1-ethyl-9-methyl-phenothiazin-5-ium iodide] | antiviral effects | eluted | 20 | 21 | around 2 logs | 0.001 | eluted | 1.2 | 1.12 | 1.16 | only at higher concentrations | dose-dependent reduction | absent | reduced tau phosphorylation | absent | around 2 logs
[I-].c1cc2nc3ccc(N4CCCC4)cc3[s+]c2cc1N1CCCC1 [PAV-617, 3,7-Di(pyrrolidine-1-yl)phenothiazine-5-ium iodide] | antiviral effects | eluted | 220 |  | retained that enhanced activity | 0.088 | eluted |  |  | 20.1 |  |  |  | reduced tau phosphorylati on ly in control | bu t no t in MIF-knockdown | retained that enhanced activity
